The source of these data is PMC2692895 (Journal of medicinal chemistry, 2008).

A short description of one data set: Permeability by PAMPA. The data set is classed as in vitro ADME. (In general: PAMPA measures passive passage across an artificial lipid membrane.)
Data set [1] in a line: Drug metabolic stability, S9 fraction with NADPH. The data set is classed as in vitro ADME.
The subject of data set [2] is caspase-3 activation in MDA-MB-231 cells. The data set can be described thus: Caspase-3 activation. The following applies: MDA-MB-231, 24 hours.
The test system of data set [3] is MDA-MB-231 breast cancer cell lines. The following applies: cited from earlier work.
The test system of a further data set is MDA-MB-231 cells. The data set is described as follows: ATPLite cell viability, compound 3 and TRAIL alone or combined. It counts as cell-based, human. The following applies: low concentrations up to 110 ng/mL, 20 hours.

Read-outs that look alike come from different tables or passages of the source.

For orientation: half-life means the time in which the quantity being followed falls by half. As to `CN[C@@H](C)C(=O)Nc1ccc(Oc2ccc(OC)cc2)c(C(=O)NCc2csc(-c3cccs3)n2)c1` [Compound 3, (S)-2-(4-methoxyphenoxy)-5-(2-(methylamino)propanamido)-N-((2-(thiophen-2-yl)thiazol-4-yl)methyl)benzamide], in the data set “Permeability by PAMPA”, the “Permeability (2 %), class” value is “High”. For the same molecule, in data set [1], the half-life worked out at 14.5 min. The caspase-3 activation entry in data set [2] is “increases caspase-3 activation”.
As to `COc1cc([C@@H]2c3cc4c(cc3[C@@H](O[C@@H]3O[C@@H]5CO[C@@H](C)O[C@H]5[C@H](O)[C@H]3O)[C@H]3COC(=O)[C@H]23)OCO4)cc(OC)c1O` [etoposide, reference compound], the DNA fragmentation result in data set [3] (etoposide 5 µM) is “no obvious DNA fragmentation”.

B1: TRAIL: tumor necrosis factor-related apoptosis-inducing ligand (Genentech) (protein, UniProt P50591 1-281, looked up)
Tumor necrosis factor ligand …: MAMMEVQGGPSLGQTCVLIVIFTVLLQSLCVAVTYVYFTNELKQMQDKYSKSGIACFLKEDDSYWDPNDEESMNSPCWQVKWQLRQLVRKMILRTSEETISTVQEKQQNISPLVRERGPQRVAAHITGTRGRSNTLSSPNSKNEKALGRKINSWESSRSGHSFLSNLHLRNGELVIHEKGFYYIYSQTYFRFQEEIKENTKNDKQMVQYIYKYTSYPDPILLMKSARNSCWSKDAEYGLYSIYQGGIFELKENDRIFVSVTNEHLIDMDHEASFFGAFLVG
B1: the “induction of tumor cell death, TRAIL alone” value with MDA-MB-231 cells is listed as “very little effects”. The DNA fragmentation entry in data set [3] (TRAIL 30 ng/ml) was “no obvious DNA fragmentation”.
